This is an account of results in patent US12083124B2 (Incyte Corporation, priority 2019, dated 2024).

The target of assay [1] is wild-type un-phosphorylated FGFR3 (Homo sapiens, UniProt P22607). As to the kind of experiment: FGFR Enzymatic Assay (FRET peptide phosphorylation), FGFR3.
In assay [2] the target is wild-type un-phosphorylated FGFR1 (Homo sapiens, UniProt P11362). As to the kind of experiment: FGFR Enzymatic Assay (FRET peptide phosphorylation), FGFR1. To be noted: pre-incubated for 4 hours.
Sequence of wild-type un-phosphorylated FGFR1 (P11362 22-822): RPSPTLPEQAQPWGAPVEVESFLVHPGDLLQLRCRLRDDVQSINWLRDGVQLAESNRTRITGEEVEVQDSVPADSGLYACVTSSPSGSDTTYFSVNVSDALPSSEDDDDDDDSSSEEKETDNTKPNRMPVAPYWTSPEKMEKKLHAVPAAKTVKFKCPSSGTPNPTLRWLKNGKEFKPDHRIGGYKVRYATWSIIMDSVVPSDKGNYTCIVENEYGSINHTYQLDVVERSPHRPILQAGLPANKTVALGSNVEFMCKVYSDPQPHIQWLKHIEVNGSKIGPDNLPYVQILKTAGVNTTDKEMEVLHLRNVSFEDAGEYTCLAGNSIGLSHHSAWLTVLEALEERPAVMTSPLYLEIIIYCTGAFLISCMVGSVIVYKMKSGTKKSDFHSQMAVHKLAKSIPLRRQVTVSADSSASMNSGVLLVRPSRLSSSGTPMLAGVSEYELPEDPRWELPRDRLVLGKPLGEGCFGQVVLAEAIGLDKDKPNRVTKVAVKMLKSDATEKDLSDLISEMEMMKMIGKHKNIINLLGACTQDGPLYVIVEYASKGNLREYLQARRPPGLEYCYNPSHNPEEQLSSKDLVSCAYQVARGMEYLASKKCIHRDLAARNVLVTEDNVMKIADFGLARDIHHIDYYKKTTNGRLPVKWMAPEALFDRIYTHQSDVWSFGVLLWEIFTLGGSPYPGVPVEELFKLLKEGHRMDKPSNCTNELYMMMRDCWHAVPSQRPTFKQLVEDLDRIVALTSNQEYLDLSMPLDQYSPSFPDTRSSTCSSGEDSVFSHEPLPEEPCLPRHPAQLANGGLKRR
For assay [3], the target named is wild-type un-phosphorylated FGFR4 (Homo sapiens, UniProt P22455). Briefly: FGFR Enzymatic Assay (FRET peptide phosphorylation), FGFR4.
Sequence of wild-type un-phosphorylated FGFR4 (P22455 22-802): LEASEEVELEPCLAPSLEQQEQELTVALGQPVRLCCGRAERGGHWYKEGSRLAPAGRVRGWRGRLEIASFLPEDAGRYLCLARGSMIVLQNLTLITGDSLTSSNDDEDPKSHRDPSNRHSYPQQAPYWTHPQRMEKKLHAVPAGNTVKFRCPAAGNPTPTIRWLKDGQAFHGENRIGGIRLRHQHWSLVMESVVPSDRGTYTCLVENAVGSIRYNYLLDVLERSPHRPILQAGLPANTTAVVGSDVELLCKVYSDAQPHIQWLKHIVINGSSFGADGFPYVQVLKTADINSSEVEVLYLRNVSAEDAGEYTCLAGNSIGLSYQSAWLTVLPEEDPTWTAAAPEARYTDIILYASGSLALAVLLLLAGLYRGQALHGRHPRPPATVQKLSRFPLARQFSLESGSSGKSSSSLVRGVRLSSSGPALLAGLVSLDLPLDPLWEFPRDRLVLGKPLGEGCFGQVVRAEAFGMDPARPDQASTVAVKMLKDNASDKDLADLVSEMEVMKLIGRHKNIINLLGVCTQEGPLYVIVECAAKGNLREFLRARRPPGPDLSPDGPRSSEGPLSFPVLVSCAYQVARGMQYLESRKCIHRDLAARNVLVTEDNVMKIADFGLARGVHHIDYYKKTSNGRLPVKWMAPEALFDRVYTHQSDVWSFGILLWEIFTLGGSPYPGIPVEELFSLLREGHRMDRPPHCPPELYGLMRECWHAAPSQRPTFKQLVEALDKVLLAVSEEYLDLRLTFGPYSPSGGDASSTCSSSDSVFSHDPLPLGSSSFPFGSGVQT
Procedure: (§1) The inhibitor potency of the exemplified compounds was determined in an enzyme discontinuous assay that measures peptide phosphorylation using FRET measurements to detect product formation. Inhibitors were serially diluted in DMSO and a volume of 0.2 μL was transferred to the wells of a 384-well plate. […] Appropriate controls (enzyme blank and enzyme with no inhibitor) were included on the plate. […] The 10 μL/well reaction concentration of the peptide substrate was 500 nM whereas the ATP concentration was maintained near or below the ATP Km. The ATP Km values were pre-determined in a separate series of experiments. The reaction plate was incubated at 25° C. for 1 hr and the reactions were ended with the addition of 5 μL/well of quench solution (50 mM Tris, 150 mM NaCl, 0.5 mg/mL BSA, pH 7.8; 45 mM EDTA, 600 nM staurosporin, with Perkin Elmer Lance Reagents at 3.75 nM Eu-antibody PY20 and 180 nM APC-Streptavidin). The plate was allowed to equilibrate for ˜10 minutes at ambient temperature before scanning on a PheraStar plate reader (BMG Labtech) instrument.
(§2) Either GraphPad prism or XLfit was used to analyze the data. The IC50 values were derived by fitting the data to a four parameter logistic equation producing a sigmoidal dose-response curve with a variable Hill coefficient. Prism equation: Y=Bottom+(Top-Bottom)/(1+10^((Log IC50-X)*Hill slope)); XLfit equation: Y=(A+((B−A)/(1+((X/C)^D)))) where X is the logarithm of inhibitor concentration and Y is the response.
(§3) GraphPad prism3 was used to analyze the data. The IC50 values were derived by fitting the data to the equation for a sigmoidal dose-response with a variable slope. Y=Bottom+(Top-Bottom)/(1+10^((Log IC50-X)*Hill Slope)) where X is the logarithm of concentration and Y is the response.
(§4) The data in Table 1 was measured in wild-type un-phosphorylated FGFR1, FGFR2, FGFR3, and FGFR4 proteins.
Assay [4] concerns the target wild-type un-phosphorylated FGFR2 (Homo sapiens, UniProt P21802). Briefly: FGFR Enzymatic Assay (FRET peptide phosphorylation), FGFR2.
Procedure: as §1, §2, §3, §4
Where [5] appears, read: FGFR1, wild-type un-phosphorylated FGFR1.
The mark [6] stands for this setting: read-out: FGFR2, wild-type un-phosphorylated FGFR2, pre-incubated for 4 hours.
[7] abbreviates: read-out: FGFR1, wild-type un-phosphorylated FGFR1.
Where [8] appears, read: read-out: FGFR4, wild-type un-phosphorylated FGFR4, pre-incubated for 4 hours.
Setting [9] is: read-out: FGFR3, wild-type un-phosphorylated FGFR3, pre-incubated for 4 hours.

Like-named read-outs stand apart in the source and are kept apart here. Some results are limits rather than exact numbers.

Sequence of wild-type un-phosphorylated FGFR2 (P21802 22-821): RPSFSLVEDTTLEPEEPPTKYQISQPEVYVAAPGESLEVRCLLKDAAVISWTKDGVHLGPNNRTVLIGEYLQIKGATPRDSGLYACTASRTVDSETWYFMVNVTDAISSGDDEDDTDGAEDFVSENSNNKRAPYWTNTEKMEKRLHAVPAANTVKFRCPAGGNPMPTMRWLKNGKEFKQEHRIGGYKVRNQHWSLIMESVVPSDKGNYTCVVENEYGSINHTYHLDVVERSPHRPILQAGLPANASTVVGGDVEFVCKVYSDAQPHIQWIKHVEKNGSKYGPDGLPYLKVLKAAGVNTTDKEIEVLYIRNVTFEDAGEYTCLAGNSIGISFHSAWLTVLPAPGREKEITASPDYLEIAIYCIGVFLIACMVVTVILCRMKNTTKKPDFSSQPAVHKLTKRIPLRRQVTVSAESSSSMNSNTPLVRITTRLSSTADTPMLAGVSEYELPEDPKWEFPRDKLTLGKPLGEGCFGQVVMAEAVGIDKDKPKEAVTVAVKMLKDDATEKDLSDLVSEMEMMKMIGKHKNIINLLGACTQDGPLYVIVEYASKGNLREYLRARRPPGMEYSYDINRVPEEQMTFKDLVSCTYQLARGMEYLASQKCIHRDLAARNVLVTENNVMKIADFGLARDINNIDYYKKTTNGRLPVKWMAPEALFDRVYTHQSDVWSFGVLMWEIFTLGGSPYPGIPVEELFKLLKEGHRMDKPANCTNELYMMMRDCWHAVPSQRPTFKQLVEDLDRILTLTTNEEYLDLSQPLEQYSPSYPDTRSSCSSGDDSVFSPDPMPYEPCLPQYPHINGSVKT
Sequence of wild-type un-phosphorylated FGFR3 (P22607 23-806): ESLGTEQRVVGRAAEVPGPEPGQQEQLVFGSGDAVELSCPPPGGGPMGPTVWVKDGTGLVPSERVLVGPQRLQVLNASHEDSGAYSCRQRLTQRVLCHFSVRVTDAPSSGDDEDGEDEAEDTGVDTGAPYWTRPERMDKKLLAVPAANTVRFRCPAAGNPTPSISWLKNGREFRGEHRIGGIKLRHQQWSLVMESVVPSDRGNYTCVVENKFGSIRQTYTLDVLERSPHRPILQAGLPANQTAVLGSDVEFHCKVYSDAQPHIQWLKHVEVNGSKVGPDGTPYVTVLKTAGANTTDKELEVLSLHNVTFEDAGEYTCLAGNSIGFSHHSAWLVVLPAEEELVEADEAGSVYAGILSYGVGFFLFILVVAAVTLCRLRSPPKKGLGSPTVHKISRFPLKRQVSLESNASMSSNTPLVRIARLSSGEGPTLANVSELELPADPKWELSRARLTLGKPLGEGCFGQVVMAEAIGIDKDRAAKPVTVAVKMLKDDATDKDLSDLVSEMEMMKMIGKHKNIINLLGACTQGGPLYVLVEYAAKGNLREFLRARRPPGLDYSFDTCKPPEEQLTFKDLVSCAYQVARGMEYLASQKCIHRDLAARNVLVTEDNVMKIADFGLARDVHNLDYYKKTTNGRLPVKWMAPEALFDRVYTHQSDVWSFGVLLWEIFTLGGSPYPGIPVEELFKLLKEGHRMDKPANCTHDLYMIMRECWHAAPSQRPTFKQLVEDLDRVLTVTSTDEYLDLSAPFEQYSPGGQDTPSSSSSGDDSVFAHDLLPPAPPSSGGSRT

As to `COc1cc2[nH]nc(-c3cnn(C)c3)c2nc1-c1cccc2c1CC(O)C2` (single isomer, unassigned) [Example 10, 4-(6-Methoxy-3-(1-methyl-1H-pyrazol-4-yl)-1H-pyrazolo[4,3-b]pyridin-5-yl)-2,3-dihydro-1H-inden-2-ol], the IC50 in assay [1] was under 6 nM; in assay [2] (setting [5]), 40 to 100 nM; in assay [3], over 100 nM; in assay [4] (setting [6]) it was 6 to 40 nM.
As to `[2H]C1(O)Cc2cccc(-c3nc4c(-c5cnn(C)c5)n[nH]c4cc3OC)c2C1` (single isomer, unassigned) [Example 74, 4-(6-Methoxy-3-(1-methyl-1H-pyrazol-4-yl)-1H-pyrazolo[4,3-b]pyridin-5-yl) 2,3-dihydro-1H-inden-2-d-2-ol], the IC50 in assay [1] is under 6 nM; in assay [2] (setting [7]), 6 to 40 nM; in assay [3], over 100 nM; in assay [4], under 6 nM.
As to `COc1cc2[nH]nc(-c3ccc(C4CCN(C(=O)CO)C4)nc3)c2nc1-c1cccc2c1CCC2` (single isomer, unassigned) [Example 101, 1-(3-(5-(5-(2,3-Dihydro-1H-inden-4-yl)-6-methoxy-1H-pyrazolo[4,3-b]pyridin-3-yl)pyridin-2-yl)pyrrolidin-1-yl)-2-hydroxyethan-1-one], the IC50 is under 6 nM in assay [1], 6 to 40 nM in assay [2] (setting [7]), 6 to 40 nM in assay [3] (setting [8]) and under 6 nM in assay [4].
Consider `COc1cc2[nH]nc(-c3ccc(C4CCN(C(=O)CO)C4)nc3)c2nc1-c1cccc2c1CCC2` (single isomer, unassigned) [Example 102, 1-(3-(5-(5-(2,3-Dihydro-1H-inden-4-yl)-6-methoxy-1H-pyrazolo[4,3-b]pyridin-3-yl)pyridin-2-yl)pyrrolidin-1-yl)-2-hydroxyethan-1-one], for which the IC50 in assay [1] (setting [9]) is under 6 nM; in assay [2] (setting [7]), 6 to 40 nM; in assay [3] (setting [8]), 6 to 40 nM; in assay [4] (setting [6]), under 6 nM.
As for `COc1cc2[nH]nc(-c3ccc(C4CCN(C(C)=O)C4)nc3)c2nc1-c1cccc2c1CCC2` (single isomer, unassigned) [Example 103, 1-(3-(5-(5-(2,3-Dihydro-1H-inden-4-yl)-6-methoxy-1H-pyrazolo[4,3-b]pyridin-3-yl)pyridin-2-yl)pyrrolidin-1-yl)ethan-1-one], the IC50 in assay [1] was under 6 nM; in assay [2] (setting [7]), 6 to 40 nM; in assay [3] (setting [8]), 6 to 40 nM; in assay [4] it was under 6 nM.
Take `COc1cc2[nH]nc(-c3ccc(C4CCN(C(C)=O)C4)nc3)c2nc1-c1cccc2c1CCC2` (single isomer, unassigned) [Example 104, 1-(3-(5-(5-(2,3-Dihydro-1H-inden-4-yl)-6-methoxy-1H-pyrazolo[4,3-b]pyridin-3-yl)pyridin-2-yl)pyrrolidin-1-yl)ethan-1-one]: the IC50 is under 6 nM in assay [1] (setting [9]), 6 to 40 nM in assay [2] (setting [7]), 6 to 40 nM in assay [3] (setting [8]) and under 6 nM in assay [4] (setting [6]).
Consider `COc1cc2[nH]nc(-c3ccc(C4CCN(C5CCNC5=O)C4)nc3)c2nc1-c1cccc2c1CCC2` (single isomer, unassigned) [Example 105, 3-(5-(5-(2,3-Dihydro-1H-inden-4-yl)-6-methoxy-1H-pyrazolo[4,3-b]pyridin-3-yl)pyridin-2-yl)-[1,3′-bipyrrolidin]-2′-one], for which the IC50 was under 6 nM in assay [1], 6 to 40 nM in assay [2] (setting [7]), 6 to 40 nM in assay [3] (setting [8]) and under 6 nM in assay [4].
In the case of `COc1cc2[nH]nc(-c3ccc(C4CCN(C5CCN(C)C5=O)C4)nc3)c2nc1-c1cccc2c1CCC2` (single isomer, unassigned) [Example 106, 3-(5-(5-(2,3-Dihydro-1H-inden-4-yl)-6-methoxy-1H-pyrazolo[4,3-b]pyridin-3-yl)pyridin-2-yl)-1′-methyl-[1,3′-bipyrrolidin]-2′-one], the IC50 was under 6 nM in assay [1], 6 to 40 nM in assay [2] (setting [7]), 6 to 40 nM in assay [3] (setting [8]) and under 6 nM in assay [4].
With `COc1cc2[nH]nc(-c3ccc(C4CCN(C(C)C(N)=O)C4)nc3)c2nc1-c1cccc2c1CCC2` (single isomer, unassigned) [Example 107, 2-(3-(5-(5-(2,3-Dihydro-1H-inden-4-yl)-6-methoxy-1H-pyrazolo[4,3-b]pyridin-3-yl)pyridin-2-yl)pyrrolidin-1-yl)propanamide], the IC50 in assay [1] was under 6 nM; in assay [2] (setting [7]) it was 6 to 40 nM; in assay [3] (setting [8]) it was 6 to 40 nM; in assay [4], under 6 nM.
`COc1cc2[nH]nc(-c3ccc(C4CCN(C(=O)C5COCCN5C)C4)nc3)c2nc1-c1cccc2c1CCC2` (single isomer, unassigned) [Example 109]: the IC50 is under 6 nM in assay [1], 6 to 40 nM in assay [2] (setting [7]), 6 to 40 nM in assay [3] (setting [8]) and under 6 nM in assay [4].
As to `COc1cc2[nH]nc(-c3ccc(C4CCC(N(C)C(=O)CO)C4)nc3)c2nc1-c1cccc2c1CCC2` (single isomer, unassigned) [Example 155, N-(3-(5-(5-(2,3-Dihydro-1H-inden-4-yl)-6-methoxy-1H-pyrazolo[4,3-b]pyridin-3-yl)pyridin-2-yl)cyclopentyl)-2-hydroxy-N-methylacetamide], the IC50 in assay [1] was under 6 nM; in assay [2] (setting [7]) it was 6 to 40 nM; in assay [3] (setting [8]), 6 to 40 nM; in assay [4], under 6 nM.
For `COCC(=O)N1CC[C@H](n2cc(-c3n[nH]c4cc(OC)c(-c5cccc6c5CCC6C#N)nc34)cn2)C1` (single isomer, unassigned) [Example 168], the IC50 in assay [1] was under 6 nM; in assay [2] (setting [7]) it was 6 to 40 nM; in assay [3] (setting [8]), 6 to 40 nM; in assay [4] it was under 6 nM.
As to `COc1cc2[nH]nc(-c3ccc(C4CCN(C(=O)N5CCOCC5)CC4)nc3)c2nc1-c1cccc2c1CCC2C#N` (single isomer, unassigned) [Example 181, 4-(6-Methoxy-3-(6-(1-(morpholine-4-carbonyl)piperidin-4-yl)pyridin-3-yl)-1H-pyrazolo[4,3-b]pyridin-5-yl)-2,3-dihydro-1H-indene-1-carbonitrile], the IC50 in assay [1] was under 6 nM; in assay [2] (setting [7]) it was 6 to 40 nM; in assay [3] (setting [8]) it was 6 to 40 nM; in assay [4] it was under 6 nM.
For the compound `COc1cc2[nH]nc(-c3ccc(C4CCN(C(C)=O)CC4)nc3)c2nc1-c1cccc2c1CCC2C#N` (single isomer, unassigned) [Example 182, 4-(3-(6-(1-Acetylpiperidin-4-yl)pyridin-3-yl)-6-methoxy-1H-pyrazolo[4,3-b]pyridin-5-yl)-2,3-dihydro-1H-indene-1-carbonitrile], the IC50 was under 6 nM in assay [1], 6 to 40 nM in assay [2] (setting [7]), 6 to 40 nM in assay [3] (setting [8]) and under 6 nM in assay [4].
With `COc1cc2[nH]nc(-c3cnn(Cc4ccncc4)c3)c2nc1-c1cccc2c1CCC2` [Example 27, 5-(2,3-Dihydro-1H-inden-4-yl)-6-methoxy-3-(1-(pyridin-4-ylmethyl)-1H-pyrazol-4-yl)-1H-pyrazolo[4,3-b]pyridine], the figures for the IC50 in assay [2] (setting [5]), in assay [3] and in assay [4] were 40 to 100 nM, 40 to 100 nM and under 6 nM, respectively.
Turning to `COc1cc2[nH]nc(-c3ccc(N4CCN5C[C@H](O)C[C@H]5C4)nc3)c2nc1-c1cccc(C)c1F` [Example 94, (7R,8aS)-2-(5-(5-(2-Fluoro-3-methylphenyl)-6-methoxy-1H-pyrazolo[4,3-b]pyridin-3-yl)pyridin-2-yl)octahydropyrrolo[1,2-a]pyrazin-7-ol], the IC50 is under 6 nM in assay [1], over 100 nM in assay [2] (setting [5]) and 6 to 40 nM in assay [4] (setting [6]).
Take `COc1cc2[nH]nc(-c3ccc(C45CC4CN(C(=O)[C@H]4COCCN4C)C5)nc3)c2nc1-c1cccc2c1CCC2` (stereo partly drawn) [Example 192, (1-(5-(5-(2,3-Dihydro-1H-inden-4-yl)-6-methoxy-1H-pyrazolo[4,3-b]pyridin-3-yl)pyridin-2-yl)-3-azabicyclo[3.1.0]hexan-3-yl)((R)-4-methylmorpholin-3-yl)methanone]: the results for the IC50 in assay [1], in assay [2] (setting [7]) and in assay [4] were under 6 nM, 6 to 40 nM and under 6 nM, respectively.
In the case of `COc1cc2[nH]nc(-c3ccc(C4(C#N)CCN(C(=O)[C@H]5COCCN5C)C4)nc3)c2nc1-c1cccc2c1CCC2` (stereo partly drawn) [Example 195, 3-(5-(5-(2,3-Dihydro-1H-inden-4-yl)-6-methoxy-1H-pyrazolo[4,3-b]pyridin-3-yl)pyridin-2-yl)-1-((R)-4-methylmorpholine-3-carbonyl)pyrrolidine-3-carbonitrile], the IC50 in assay [1] was under 6 nM; in assay [2] (setting [7]) it was 6 to 40 nM; in assay [4], under 6 nM.
For the compound `COc1cc2[nH]nc(-c3ccc(C4(C#N)CCN(C(=O)[C@H]5COCCN5C)CC4)nc3)c2nc1-c1cccc2c1CCC2` [Example 196, (R)-4-(5-(5-(2,3-Dihydro-1H-inden-4-yl)-6-methoxy-1H-pyrazolo[4,3-b]pyridin-3-yl)pyridin-2-yl)-1-(4-methylmorpholine-3-carbonyl)piperidine-4-carbonitrile], the IC50 in assay [1] is under 6 nM; in assay [2] (setting [7]) it was 6 to 40 nM; in assay [4] it was under 6 nM.
For `COc1cc2[nH]nc(-c3cnn(C45CC4CN(C(=O)CO)C5)c3)c2nc1-c1cccc2c1CCC2` (centres unmarked) [Example 197, 1-(1-(4-(5-(2,3-Dihydro-1H-inden-4-yl)-6-methoxy-1H-pyrazolo[4,3-b]pyridin-3-yl)-1H-pyrazol-1-yl)-3-azabicyclo[3.1.0]hexan-3-yl)-2-hydroxyethan-1-one], the IC50 is under 6 nM in assay [1], 6 to 40 nM in assay [2] (setting [7]) and under 6 nM in assay [4].
